Laboratory results taken from patent publication US20220030868A1, “FUNGICIDAL HALOMETHYL KETONES AND HYDRATES” (FMC CORPORATION, priority 2018, published 2022).

Columns and labels:
Phakopsora pachyrhizi = experiment: Test A: test suspension sprayed on soybean seedlings one day before inoculation with Phakopsora pachyrhizi spores (Asian soybean rust), visual disease rating; type: in vivo; details: 10 ppm test suspension, 100 = 100% disease control, 0 = no control
Outline: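 Soybean seedlings were sprayed to run-off with test suspension (acetone 3% of volume, acetone/water 50/50, 250 ppm PEG400) and inoculated with rust spores one day later. Incubation: 24 h saturated atmosphere at 22° C, then 8 days growth chamber at 22° C; scores 0–100 relative to untreated controls.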

[1] = system: Puccinia recondita f. sp. tritici; experiment: Test B: test suspension sprayed on wheat seedlings one day before inoculation with Puccinia recondita f. sp. tritici spores (wheat leaf rust), disease rating; type: in vivo; details: 10 ppm test suspension, 100 = 100% disease control, 0 = no control
Outline: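 Wheat seedlings were sprayed to run-off with compound suspended in 50/50 acetone/water containing 250 ppm PEG400, then inoculated with P. recondita f. sp. tritici spores the next day. Plants were held 24 h in saturated air at 20 °C, then 6 days in a growth chamber at 20 °C. Disease control was rated 0–100% relative to controls, with some entries run at 50 or 10 ppm.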

| Structure (SMILES) | Test A rating (disease control) (Phakopsora pachyrhizi) [%] | Test B rating (disease control) [1] [%] |
| --- | --- | --- |
| N#CCOC(=O)c1cnn(Cc2ccc(OCC3(C(F)(F)F)OCCO3)cc2)c1 [compound 172] | 100 | 0 |
| FC(F)(F)c1nc(-c2ccc(OCC3(C(F)(F)F)OCCO3)cc2)no1 [compound 173] | 0 | 0 |
| NCc1ccc(OCC2(C(F)(F)F)OCCO2)cc1 [compound 174] | 0 | 0 |
| CC(C)C(=O)NCc1ccc(OCC2(C(F)(F)F)OCCO2)cc1 [compound 175] | 0 | 0 |
| O=C(NCc1ccc(OCC2(C(F)(F)F)OCCO2)cc1)C1CC1 [compound 176] | 0 | 0 |
| OCc1ccc(OCC2(C(F)(F)F)OCCO2)cc1 [compound 178] | 0 | 0 |
| O=C(NCc1ccc(OCC2(C(F)(F)F)OCCO2)cc1)c1cccc(C(F)(F)F)c1 [compound 179] | 0 | 0 |
| CCO/C(=C\Oc1ccc(Cn2cc(Cl)cn2)cc1)C(F)(F)F [compound 180] | 0 | 0 |
| CCO/C(=C\Oc1ccc(Cn2ccc(C(F)(F)F)n2)cc1)C(F)(F)F [compound 181] | 0 | 0 |
| CCO/C(=C\Oc1ccc(Cn2cc(C(F)(F)F)cn2)cc1)C(F)(F)F [compound 182] | 0 | 0 |
| CCO/C(=C\Oc1ccc(Cn2cc(Br)cn2)cc1)C(F)(F)F [compound 183] | 0 | 0 |
| CCO/C(=C\Oc1ccc(CN2C(=O)c3ccccc3C2=O)cc1)C(F)(F)F [compound 184] | 0 | 0 |
| C=CCOC(=O)c1cnn(Cc2ccc(OCC3(C(F)(F)F)OCCO3)cc2)c1 [compound 188] | 100 | 0 |
| COC(=O)c1ccc(OCC2(C(F)(F)F)OCCO2)cc1 [compound 189] | 0 | 0 |
| FC(F)(F)C1(COc2ccc(-c3ccccc3)cc2)OCCO1 [compound 190] | 0 | 0 |
| FC(F)(F)C1(COc2ccc(Oc3ccccc3)cc2)OCCO1 [compound 191] | 0 | 0 |
| FC(F)(F)C1(COc2ccc(Cc3ccccc3)cc2)OCCO1 [compound 192] | 0 | 0 |
| CCO/C(=C\Oc1ccc(COC(N)=O)cc1)C(F)(F)F [compound 193] | 0 | 86 |
| CCO/C(=C\Oc1ccc(CO)cc1)C(F)(F)F [compound 195] | 0 | 0 |
| CCNC(=O)OCc1ccc(O/C=C(\OCC)C(F)(F)F)cc1 [compound 196] | 0 | 74 |
| O=C(NCC(F)(F)F)c1cnn(Cc2ccc(OCC3(C(F)(F)F)OCCO3)cc2)c1 [compound 197] | 0 | 0 |
| CN(C)C(=O)c1cnn(Cc2ccc(OCC3(C(F)(F)F)OCCO3)cc2)c1 [compound 198] | 0 | 0 |
| O=C(OCc1ccccn1)c1cnn(Cc2ccc(OCC3(C(F)(F)F)OCCO3)cc2)c1 [compound 199] | 100 | 0 |
| O=C(OCc1cccnc1)c1cnn(Cc2ccc(OCC3(C(F)(F)F)OCCO3)cc2)c1 [compound 200] | 100 | 0 |
| O=C(OCc1ccncc1)c1cnn(Cc2ccc(OCC3(C(F)(F)F)OCCO3)cc2)c1 [compound 201] | 100 | 0 |

| Structure (SMILES) | Test A rating (disease control) (Phakopsora pachyrhizi) [%] | Test B rating (disease control) [1] [%] |
| --- | --- | --- |
| O=C(OCC(=O)C1CCCCC1)c1cnn(Cc2ccc(OCC3(C(F)(F)F)OCCO3)cc2)c1 [compound 202] | 100 | 0 |
| COC(=O)COC(=O)c1cnn(Cc2ccc(OCC3(C(F)(F)F)OCCO3)cc2)c1 [compound 203] | 50 | 0 |
| O=C(OCC1OCCO1)c1cnn(Cc2ccc(OCC3(C(F)(F)F)OCCO3)cc2)c1 [compound 204] | 100 | 0 |
| CCO/C(=C\Oc1ccc(Cn2cc(C#N)cn2)cc1)C(F)(F)F [compound 205] | 0 | 0 |
| O=S(=O)(NCc1ccc(OCC2(C(F)(F)F)OCCO2)cc1)C(F)(F)F [compound 207] | 0 | 0 |
| N#Cc1cnn(Cc2ccc(OCC3(C(F)(F)F)OCCO3)cc2)c1 [compound 209] | 89 | 0 |
| CCO/C(=C\Oc1ccc(CNC(=O)C(C)C)cc1)C(F)(F)F [compound 210] | 0 | 0 |
| O=C(CC(F)(F)F)NCc1ccc(OCC2(C(F)(F)F)OCCO2)cc1 [compound 212] | 44 | 0 |
| COC(C)C(=O)NCc1ccc(OCC2(C(F)(F)F)OCCO2)cc1 (stereo not shown) [compound 214] | 0 | 0 |
| CCO/C(=C\Oc1ccc(Cn2cc(C(=O)OCCOC)cn2)cc1)C(F)(F)F [compound 222] | 100 | 0 |
| CCO/C(=C\Oc1ccc(CN2CCCC2=O)cc1)C(F)(F)F [compound 224] | 0 | 0 |
| CCO/C(=C\Oc1ccc(CN2CCC(C)(C)C2=O)cc1)C(F)(F)F [compound 225] | 0 | 0 |
| CCO/C(=C\Oc1ccc(Cn2c(=O)oc3ccccc32)cc1)C(F)(F)F [compound 226] | 0 | 0 |
| C=C(C)COC(=O)c1cnn(Cc2ccc(OCC3(C(F)(F)F)OCCO3)cc2)c1 [compound 228] | 100 | 0 |
| CCO/C(=C\Oc1ccc(C(=O)OC)cc1)C(F)(F)F [compound 230] | 0 | 0 |
| CCOC(=O)c1ccn(Cc2ccc(OCC3(C(F)(F)F)OCCO3)cc2)n1 [compound 232] | 98 | 0 |
| CON(Cc1ccc(OCC2(C(F)(F)F)OCCO2)cc1)C(=O)C(C)C [compound 235] | 97 | 0 |
| CON(Cc1ccc(OCC2(C(F)(F)F)OCCO2)cc1)C(=O)C1CC1 [compound 236] | 75 | 0 |
| CCCC(=O)N(Cc1ccc(OCC2(C(F)(F)F)OCCO2)cc1)OC [compound 237] | 97 | 0 |
| CON(Cc1ccc(OCC2(C(F)(F)F)OCCO2)cc1)C(=O)OC(C)(C)C [compound 238] | 73 | 0 |
| N#CCc1ccc(OCC2(C(F)(F)F)OCCO2)cc1 [compound 239] | 0 | 0 |
| CCOCc1cnn(Cc2ccc(OCC3(C(F)(F)F)OCCO3)cc2)c1 [compound 240] | 99 | 0 |
| CCOC(=O)c1ccnn1Cc1ccc(O/C=C(\OCC)C(F)(F)F)cc1 [compound 241] | 0 | 0 |
| C=C(C)COC(=O)c1cnn(Cc2ccc(O/C=C(\OCC)C(F)(F)F)cc2)c1 [compound 242] | 100 | 0 |
| CCO/C(=C\Oc1ccc(Cn2cc(C(=O)OCC(=O)c3ccccc3)cn2)cc1)C(F)(F)F [compound 244] | 100 | 0 |
